Data: patent US5612480A, “2-chloro and 2-bromo derivatives of 1,5-iminosugars” (priority 1995, dated 1997)
Read-outs that look alike come from different tables or passages of the source.

How the values were obtained:
visna virus = assay: Inhibition of visna virus growth, plaque reduction assay in sheep choroid plexus (SCP) cells (Method A); assay type: cell-based; details: for inhibition at 1000 µM: 1.0 mM
From the text: Inhibitory activity against visna virus was shown by a conventional plaque reduction assay. Visna virus, a lentivirus genetically very similar to the AIDS virus, is pathogenic for sheep and goats. See Sonigo et al., Cell 42, 369-382 (1985); Haase, Nature 322, 130-136 (1986). Inhibition of visna virus replication in vitro as a useful model for HIV and its inhibition by test compounds has been described by Frank et al., Antimicrobial Agents and Chemotherapy 31 (9), 1369-1374 (1987).
Various illustrative compounds synthesized above were tested for inhibition of visna virus in vitro in a plaque reduction assay (Method A) or for inhibition of HIV-1 in a test which measured reduction of cyto-pathogenic effect in virus-infected syncytium-sensitive Leu-3a-positive CEM cells grown in tissue culture (Method B) as follows:
Sheep choroid plexus (SCP) cells were obtained from American Type Culture Collection (ATCC) catalogue number CRL 1700 and were routinely passaged in vitro in Dulbecco's Modified Eagles (DME) medium supplemented with 20% fetal bovine serum (FBS). SCP cells were passaged once per week at a 1:2 or 1:3 split ratio. Visna was titrated by plaque assay in six-well plates. Virus pools were stored at -70° C.
SCP cells were cultured in 6-well plates to confluence. Wells were washed two times with serum free Minimal Essential Medium (MEM) to remove FBS. 0.2 ml of virus was added per well in MEM supplemented with 4 mM glutamine and gentamycin. After 1 hour adsorption, the virus was aspirated from each well. The appropriate concentration of each compound in 5 ml of Medium 199 (M-199) supplemented with 2% lamb serum, 4 mM glutamine, 0.5% agarose and gentamycin was added to each well. Cultures were incubated at 37° C. in a humidified 5% CO2 incubator for 3-4 weeks. To terminate the test, cultures were fixed in 10% formalin, the agar removed, the monolayers stained with 1% crystal violet and plaques counted. Each compound concentration was run in triplicate. […] 0 is no toxicity observed while 4 is total lysing of the cell monolayer. […]
Control wells without virus were completed to determine the toxicity of compounds.

α-Glucosidase (yeast) = target: T1, α-Glucosidase (yeast) (Saccharomyces cerevisiae, UniProt P53341); assay: Alpha-glucosidase (yeast) inhibition assay, pH 7.4; assay type: biochemical
T1 construct: purchased Sigma
T1 sequence (P53341 whole entry): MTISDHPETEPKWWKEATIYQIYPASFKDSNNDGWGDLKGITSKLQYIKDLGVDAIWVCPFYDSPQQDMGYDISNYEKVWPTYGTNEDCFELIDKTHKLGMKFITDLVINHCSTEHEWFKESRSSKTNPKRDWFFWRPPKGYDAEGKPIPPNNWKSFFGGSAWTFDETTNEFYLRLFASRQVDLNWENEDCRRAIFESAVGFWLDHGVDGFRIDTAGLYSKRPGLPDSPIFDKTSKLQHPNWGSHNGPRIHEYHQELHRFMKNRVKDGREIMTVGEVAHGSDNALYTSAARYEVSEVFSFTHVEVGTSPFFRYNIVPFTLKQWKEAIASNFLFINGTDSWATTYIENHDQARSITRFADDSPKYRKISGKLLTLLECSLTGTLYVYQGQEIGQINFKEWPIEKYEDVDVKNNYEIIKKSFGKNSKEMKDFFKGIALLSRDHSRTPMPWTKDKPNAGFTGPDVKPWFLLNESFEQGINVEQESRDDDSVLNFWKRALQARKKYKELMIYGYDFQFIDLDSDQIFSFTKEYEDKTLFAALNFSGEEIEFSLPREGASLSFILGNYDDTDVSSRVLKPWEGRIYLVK
Method: (§1) Yeast alpha-glucosidase and almond beta-glucosidase activities were measured by a modification of the method of Evans, et al., Phytochemistry 22, 768-770 (1983). The modifications included (1) assay of activities at pH 7.4 in HEPES (N-2-hydroxyethylpiperazine-N'-2-ethanesulfonic acid) buffer, 2) measurement in 96 well microtiter plates and (3) inclusion of 10% DMSO in control and test samples.
(§2) The release of p-nitrophenol from the substrate p-nitrophenylglycoside was measured spectrophotometrically in the presence and absence of test compound. Each assay included a known inhibitor of the enzyme as a standard. IC50 values were determined for compounds which inhibited the enzymes more than 50% at a 1 millimolar concentration.
(§3) To 100 μl 50 mM HEPES buffer, pH 7.4, in a microtiter plate, add 20 μl test compound in DMSO (DMSO alone in control), 40 μl (0.013 units) yeast alpha-glucosidase (Sigma) in HEPES buffer and pre-incubate at room temperature for 15 minutes. Add 40 μl 1.25 mM p-nitrophenyl-alpha-D-glucopyranoside (Sigma) in HEPES buffer, as substrate, and monitor absorbance change at 405 nm in a Biotek EIA Autoreader. Absorption change was measured at 15 to 25 minutes (reaction was linear for at least 30 minutes). Each sample was tested in triplicate. IC50 values were determined from the linear portion of the log concentration vs % inhibition curve obtained from a minimum of 3 points. Deoxynojirimycin was used as standard inhibitor.

β-Glucosidase (almond) [1] = assay: Beta-glucosidase (almond) inhibition assay, pH 7.4; assay type: biochemical
Method: as §1, §2
as §3, with “μl (0.136” for “μl (0.013”, “units) beta-glucosidase” for “units) yeast alpha-glucosidase”, “mM p-nitrophenyl-beta-D-glucopyranoside” for “mM p-nitrophenyl-alpha-D-glucopyranoside (Sigma)”, “as substrate” for “as substrate,”, “(reaction is” for “(reaction was”, “points. Castanospermine” for “points. Deoxynojirimycin”

β-Glucosidase (almond) [2] = assay: Beta-glucosidase (almond) inhibitor assay, pH 4.8; assay type: biochemical
Method: as §1, §2
To 100 μl 50 mM sodium citrate buffer, pH 4.8, in a microtiter plate, add 15 μl test compound in DMSO (DMSO alone in control), 20 μl (0.017 units) beta-glucosidase (Sigma) in citrate buffer and pre-incubate at room temperature for 15 minutes. Add 25 μl 2.50 mM p-nitrophenyl-beta-D-glucopyranoside in citrate buffer, as substrate. Incubate at room temperature 20 minutes (reaction is linear for at least 30 minutes). Add 50 μl 0.4 M NaOH. Read absorption change at 405 nm in a Biotek EIA Autoreader. Each sample was tested in triplicate. IC50 values were determined from the linear portion of the log concentration vs % inhibition curve obtained from a minimum of 3 points. Castanospermine was used as standard inhibitor.

[3] = 100 μM, pH 7.4, read-out: Percent inhibition of α-glucosidase (yeast)
[4] = 1000 μM, pH 7.4, read-out: Percent inhibition of α-glucosidase (yeast)
[5] = pH 7.4, read-out: Percent inhibition of α-glucosidase (yeast)

| SMILES | inhibition at 10 µM (visna virus; Visna-maedi virus, 0.01 mM) [%] | inhibition at 100 µM (visna virus; Visna-maedi virus, 0.1 mM) [%] | inhibition at 100 µM (α-Glucosidase (yeast); [3]) [%] | inhibition at 1000 µM (α-Glucosidase (yeast); [4]) [%] | Percent inhibition of β-glucosidase (almond) (β-Glucosidase (almond) [1]; 100 μM) [%] | Percent inhibition of β-glucosidase (almond) (β-Glucosidase (almond) [1]; 1000 μM) [%] | Percent inhibition of β-glucosidase (almond) (β-Glucosidase (almond) [2]; 100 μM) [%] | Percent inhibition of β-glucosidase (almond) (β-Glucosidase (almond) [2]; 1000 μM) [%] | other results |
| --- | --- | --- | --- | --- | --- | --- | --- | --- | --- |
| CCCCN1C[C@H]2O[C@H]2[C@H](OC(C)=O)[C@H]1COC(C)=O [Example 45, 2,3-Anhydro-1,5-(butylimino)-1,5-dideoxy-D-mannitol, diacetate] | 5 | 44 |  |  |  |  |  |  | inhibition at 1000 µM (visna virus; Visna-maedi virus): 85% |
| CCCCN1[C@H](CN)[C@@H](O)[C@H](O)[C@H]1CO [Example 48, 1-Amino-2,5-(butylimino)-1,2,5-trideoxy-D-mannitol] |  |  | 24.6 | 60.9 | 6.9 | 43.1 | 9.5 | 27.9 |  |
| CCCCN(CCCC)C[C@@H]1[C@@H](O)[C@H](O)[C@@H](CO)N1CCCC [Example 49, 2,5-(Butylimino)-1-(dibutylamino)-1,2,5-trideoxy-D-mannitol] |  |  | -12.6 | -20.5 | -5.3 | 0.2 | 10.9 | 18.8 |  |
| CCCCN1[C@H](CO)[C@@H](O)[C@H](O)[C@H]1CSc1nnnn1C [56(b), 2,5-(Butylimino)-2,5-dideoxy-1S-(1-methyl-1H-tetrazol-5-yl) 1-thio-D-mannitol] |  |  | 15.6 | 15.7 | -6 | 5.7 | 7.5 | 29.4 |  |
| CCCCN1C[C@H](C#N)[C@@H](O)[C@H](O)[C@H]1CO [Example 53, 1,5-(Butylimino)-2-cyano-1,2,5-trideoxy-D-glucitol] |  |  | 20.1 | -29.4 | -4.2 | -7.3 | 1.6 | 9.5 |  |
| CCCCCCCCCN1C[C@H](Cl)[C@@H](O)[C@H](O)[C@H]1CO [Example 29, 2-Chloro-1,2,5-trideoxy-1,5-(nonylimino)-D-glucitol] |  |  |  |  | 54.7 | 91.9 | 33.1 | 52.8 | % inhibition of visna virus growth (visna virus; 0.001 mM): 23%; % inhibition of visna virus growth (visna virus; 0.01 mM): 53%; % inhibition of visna virus growth (visna virus; 0.1 mM): 100%; inhibition at 1 µM (α-Glucosidase (yeast); [5]): 11.5%; inhibition at 10 µM (α-Glucosidase (yeast); [5]): 61.5%; inhibition at 100 µM (α-Glucosidase (yeast); [5]): 91.8%; inhibition at 1000 µM (α-Glucosidase (yeast); [5]): 102% |
| CCCCN1C[C@H](Sc2nnnn2C)[C@@H](O)[C@H](O)[C@H]1CO [56(a), 1,5-(Butylimino)-1,5-dideoxy-2-S-(1-methyl-1H-tetrazol-5-yl) 2-thio-D-glucitol] |  |  | 18.1 | -8.2 | -3.4 | -15.8 | -0.9 | 13.7 |  |
| OC[C@@H]1[C@@H](O)[C@H](O)[C@@H](Cl)CN1Cc1ccccc1 [Example 32, 2-Chloro-1,2,5-trideoxy-1,5-(phenylmethyl)imino-D-glucitol] | -3 | 28 |  |  |  |  |  |  | inhibition at 1 µM (visna virus; Visna-maedi virus, 0.001 mM): 12% |
| CCCCN1C[C@H](Cl)[C@@H](OC(C)=O)[C@H](OC(C)=O)[C@H]1COC(C)=O [Example 38, 1,5-(Butylimino)-2-chloro-1,2,5-trideoxy-D-glucitol, triacetate] | 61 | 86 |  |  |  |  |  |  | inhibition at 1000 µM (visna virus; Visna-maedi virus): 97% |
| CC(=O)OC[C@@H]1[C@@H](OC(C)=O)[C@H](OC(C)=O)[C@@H](Cl)CN1CCCc1ccccc1 [Example 39, 2-Chloro-1,2,5-trideoxy-1,5-(3-phenyl)propylimino-D-glucitol, triacetate] |  |  |  |  |  |  |  |  | inhibition at 0.5 µM (visna virus; Visna-maedi virus, 0.0005 mM): 44%; inhibition at 5 µM (visna virus; Visna-maedi virus, 0.005 mM): 58%; inhibition at 50 µM (visna virus; Visna-maedi virus, 0.05 mM): 98% |
| CCCCN1C[C@H](OC(=O)OCC(C)C)[C@@H](O)[C@H](O)[C@H]1CO [Example 34, 1,5-(Butylimino)-1,5-dideoxy-D-glucitol, 2-[(2-methylpropyl)-carbonate]] | 7 | 89 |  |  |  |  |  |  | inhibition at 1 µM (visna virus; Visna-maedi virus, 0.001 mM): -2%; inhibition at 1000 µM (visna virus; Visna-maedi virus): 100% |
| CCCCN1[C@H](CO)[C@@H](O)[C@H](O)[C@H]1COC(=O)c1ccccc1 [Example 58, 2,5-(Butylimino)-2,5-dideoxy-D-mannitol, 1-benzoate] |  |  | 36.2 | 44 | -7.5 | 13.2 | 1.8 | 18.6 |  |
| CCCCNC(=O)O[C@H]1CN(CCCC)[C@H](CO)[C@@H](O)[C@@H]1O [Example 36] |  |  | 11 | -6.8 | -2.4 | 0.3 | 4.3 | 3.1 | inhibition at 1000 µM (visna virus; Visna-maedi virus): 21% |
| CCCCN1C[C@H](OC(=O)Nc2ccccc2)[C@@H](O)[C@H](O)[C@H]1CO [Example 35] | 31 | 41 |  |  |  |  |  |  |  |
| CCCCN1C[C@H](Cl)[C@@H](OC(=O)CCC)[C@H](OC(=O)CCC)[C@H]1COC(=O)CCC [Example 40, 1,5-(Butylimino)-2-chloro-1,2,5-trideoxy-D-glucitrol, tributyrate] | 24 | 77 |  |  |  |  |  |  | inhibition at 1 µM (visna virus; Visna-maedi virus, 0.001 mM): 0% |
| CCCCN1[C@H](CO)[C@@H](O)[C@H](O)[C@H]1CNC(C)=O [Example 51, 1-(Acetylamino)-2,5-(butylimino)-1,2,5-trideoxy-D-mannitol] |  |  | 27.1 | 39.3 | -3.8 | 4.4 | 6 | 26 |  |
| CCCCN1[C@H](CO)[C@@H](O)[C@H](O)[C@H]1CC#N [Example 54, 3,6-(Butylimino)-2,3,6-trideoxy-D-manno-heptanonitrile] |  |  | 23.5 | 22.6 | -7.8 | -7.9 | 0.1 | 4.1 |  |
